Literature values as cited in patent publication US20050038005A1, “Method of intermittent administration of a pharmaceutical for the treatment of conditions associated with a female's menstrual cycle” (priority 2003, published 2005).

What was measured:
[1] = calcium supplementation; especially pain and water retention
[2] = magnesium supplementation, oral
[3] = intermittent administration for approximately fourteen days prior to the start of menses
[4] = administration of fluoxetine

In the case of [Ca+2] [Calcium], the “alleviation of symptoms associated with PMS” value [1] is listed as “effective treatment for alleviating some of the symptoms associated with PMS”.

In the case of [Mg+2] [Magnesium], the “relief of symptoms of PMS” value [2] is listed as “relieve some symptoms of PMS, particularly pain and mood fluctuations”.

For CNCCC(Oc1ccc(C(F)(F)F)cc1)c1ccccc1 (stereo not shown) [fluoxetine], the “efficacy in treating the symptoms of PMS” value [3] is listed as “efficacious in treating the symptoms of PMS” and the “amelioration of symptoms of PMS/PMDD” value [4] is listed as “ameliorate the symptoms of PMS/PMDD”.
